In data set [1] the test system is mouse. The following applies: Subchronic oral toxicity in rodents, cd1, Gavage/Intubation, dose end: 13 week, group: systemic.
Data set [2] deals with rat. The note with it: Subchronic oral toxicity in rodents, sprague dawley, Gavage/Intubation, dose end: 13 week, group: systemic.
The subject of data set [3] is primate. The note with it: Subchronic oral toxicity in nonrodent, macaque, Gavage/Intubation, dose end: 7 week, group: systemic, systemic / clinical chemistry / alkaline phosphatase (alp/alk) / alkaline phosphatase (alp/alk) + systemic / organ weight / liver / absolute….
Data set [4] deals with rat. The following applies: Sub-acute repeat dose toxicity; sprague dawley; Oral; Gavage/Intubation; dose end: 6 week; group: systemic; systemic / organ weight / liver / absolute + systemic / organ weight / liver / relative to body weight + systemic / pathology microscopic / ….
The subject of data set [5] is rat. The following applies: Prenatal developmental toxicity study, sprague dawley, Oral, Gavage/Intubation, dose end: 15 GD.
The test system of data set [6] is rat. The note with it: Subchronic dermal toxicity, sprague dawley, Topical, dose end: 91 day, group: systemic, systemic / in life observation / clinical signs / erythema.
Data set [7] has as its system rabbit. The following applies: Prenatal developmental toxicity study; new zealand white; Oral; Gavage/Intubation; dose end: 18 GD; group: maternal; systemic / in life observation / clinical signs / general motor disturbances + systemic / in life observation / clinical signs / partial ….
For data set [8], the system named is rat. The note with it: Prenatal developmental toxicity study, sprague dawley, Oral, Gavage/Intubation, dose end: 15 GD. The source holds these as a separate data set.
Data set [9] relates to dog. The following applies: Subchronic oral toxicity in nonrodent, beagle, Feed, dose end: 13 week, group: systemic, systemic / in life observation / body weight / body weight + systemic / in life observation / body weight / body weight gain + systemic / ….
In data set [10] the test system is rat. The note with it: Subchronic oral toxicity in rodents, sprague dawley, Feed, dose end: 90 day, group: systemic, systemic / pathology microscopic / kidney / basophilia + systemic / pathology microscopic / kidney / dilatation + systemic / pathology ….
Data set [11] deals with rat. The following applies: Combined chronic toxicity/carcinogenicity, sprague dawley, Oral, Feed, dose end: 2 year, group: systemic.
Data set [12] deals with dog. The note with it: Chronic toxicity, beagle, Oral, Gavage/Intubation, dose end: 52 week, group: systemic.
Data set [13] concerns rat. The following applies: Chronic toxicity; sprague dawley; Oral; Gavage/Intubation; dose end: 6 month; group: systemic; systemic / clinical chemistry / creatinine / creatinine.
Data set [14] deals with mouse. The note with it: Subchronic oral toxicity in rodents, cd1, Feed, dose end: 14 week, group: systemic.
Data set [15] deals with dog. The following applies: Subchronic oral toxicity in nonrodent, beagle, Gavage/Intubation, dose end: 6 month, group: systemic.
Data set [16] has as its system rat. The following applies: Subchronic oral toxicity in rodents, sprague dawley, Feed, dose end: 13 week, group: systemic.
Data set [17] has as its system dog. The following applies: Subchronic oral toxicity in nonrodent, beagle, Gavage/Intubation, dose end: 13 week, group: systemic.
Data set [18] deals with rat. The note with it: Subchronic oral toxicity in rodents, wistar, Gavage/Intubation, dose end: 13 week, group: systemic.
Where [19] appears, read: systemic / clinical chemistry / albumin / albumin + systemic / clinical chemistry / protein / protein + systemic / hematology / platelet / ….
The mark [20] stands for this setting: systemic / pathology microscopic / adrenal gland / vacuolization + systemic / pathology microscopic / liver / eosinophilic focus + systemic….
Setting [21] is: systemic / clinical chemistry / [other] / [other] + systemic / clinical chemistry / alanine aminotransferase (alt/sgpt) / alanine ….
The mark [22] stands for this setting: systemic / hematology / mean corpuscular (cell) volume (mcv) / mean corpuscular (cell) volume (mcv) + systemic / hematology / mean ….
Where [23] appears, read: group: developmental, developmental / developmental malformation / bone / bent + developmental / developmental malformation / bone / unossified + developmental / ….
Setting [24] is: group: maternal, systemic / in life observation / body weight / body weight + systemic / in life observation / clinical signs / reduced activity + systemic….
The mark [25] stands for this setting: group: developmental, developmental / developmental malformation / bone / incomplete ossification + developmental / developmental malformation / interparietal / ….
Where [26] appears, read: group: maternal, systemic / in life observation / food consumption / food consumption + systemic / pathology gross / kidney / enlarged.
Setting [27] is: systemic / pathology microscopic / kidney / dilatation + systemic / pathology microscopic / kidney / fibrosis + systemic / clinical ….
[28] abbreviates: systemic / organ weight / heart / absolute.
Setting [29] is: systemic / organ weight / heart / absolute + systemic / clinical chemistry / alkaline phosphatase (alp/alk) / alkaline phosphatase (alp/alk….
Where [30] appears, read: systemic / clinical chemistry / creatinine / creatinine.
Where [31] appears, read: systemic / clinical chemistry / creatinine / creatinine + systemic / hematology / hematocrit (hct) / hematocrit (hct) + systemic / ….
Where [32] appears, read: systemic / organ weight / adrenal gland / relative to body weight + systemic / organ weight / heart / absolute + systemic / clinical ….
Where [33] appears, read: systemic / clinical chemistry / creatinine / creatinine + systemic / hematology / reticulocyte / reticulocyte + systemic / organ weight / ….
[34] abbreviates: systemic / clinical chemistry / alanine aminotransferase (alt/sgpt) / alanine aminotransferase (alt/sgpt) + systemic / in life observation….
[35] abbreviates: systemic / organ weight / adrenal gland / absolute.
Where [36] appears, read: systemic / clinical chemistry / albumin / albumin + systemic / clinical chemistry / chloride / chloride + systemic / clinical chemistry / ….
[37] abbreviates: systemic / clinical chemistry / albumin / albumin + systemic / clinical chemistry / protein / protein + systemic / in life observation / ….

Some results are limits rather than exact numbers.

As usually defined, the LOAEL is the lowest tested level that showed an adverse finding. As a reminder, the NOAEL is the highest tested level that showed no adverse finding. With `CCc1cc(SCc2sc(-c3ccc(C(F)(F)F)cc3)nc2CN2CCN(c3ccc(OC)cc3)CC2)ccc1OCC(=O)O`, the LOAEL in [1] (setting [19]) is more than 1000 mg/kg/day; in data set [2] (setting [21]) it was more than 1000 mg/kg/day; in data set [3], more than 100 mg/kg/day; in [4], more than 100 mg/kg/day. For the same molecule, the NOAEL in data set [1] (setting [19]) is not below 1000 mg/kg/day; in [2] (setting [21]), not below 1000 mg/kg/day; in [3], not below 100 mg/kg/day; in data set [4], not below 100 mg/kg/day. The LEL in data set [1] (setting [20]) amounted to 10 mg/kg/day; in data set [2] (setting [22]), 30 mg/kg/day; in data set [3], 5 mg/kg/day; in data set [4], 5 mg/kg/day. Further, the NEL is less than 10 mg/kg/day in data set [1] (setting [20]), less than 30 mg/kg/day in [2] (setting [22]), less than 5 mg/kg/day in data set [3] and less than 5 mg/kg/day in data set [4].

Turning to `N#CN=C([S-])[S-].[Na+].[Na+]` [Disodium cyanodithioimidocarbonate], the LOAEL in data set [5] (group: developmental, developmental / developmental malformation / bone / bent + developmental / developmental malformation / bone / unossified) turned out to be 18 mg/kg/day; in data set [5] (group: maternal, systemic / in life observation / body weight / body weight + systemic / in life observation / clinical signs / reduced activity), 18 mg/kg/day; in [6], 25 mg/kg/day; in data set [7] it was 10 mg/kg/day. Also, the LEL in data set [5] (setting [23]) was 18 mg/kg/day; in [5] (setting [24]), 18 mg/kg/day; in data set [6] it was 25 mg/kg/day; in data set [7] it was 10 mg/kg/day. Also, the NEL in data set [5] (setting [23]) is 6 mg/kg/day; in data set [5] (setting [24]), 6 mg/kg/day; in [6], less than 25 mg/kg/day; in [7] it was 3 mg/kg/day. For the same molecule, the NOAEL is 6 mg/kg/day in data set [5] (setting [23]), 6 mg/kg/day in data set [5] (setting [24]), less than 25 mg/kg/day in data set [6] and 3 mg/kg/day in data set [7].

For `CCNc1nc(NC(C)C)[nH]c(=O)n1` [2-Hydroxyatrazine], the LEL in data set [8] (setting [25]) came to 125 mg/kg/day; in [8] (setting [26]) it was 125 mg/kg/day; in data set [9] it was 59.6 mg/kg/day; in data set [10], 18.9 mg/kg/day; in [11] (systemic / pathology microscopic / kidney / dilatation + systemic / pathology microscopic / kidney / fibrosis + systemic / pathology gross…), 7.75 mg/kg/day. Further, the LOAEL stood at 125 mg/kg/day in [8] (setting [25]); 125 mg/kg/day in [8] (group: maternal, systemic / in life observation / food consumption / food consumption); 59.6 mg/kg/day in data set [9]; 18.9 mg/kg/day in data set [10]; 7.75 mg/kg/day in data set [11] (systemic / pathology microscopic / kidney / dilatation + systemic / pathology microscopic / kidney / fibrosis). For the same molecule, the NEL in data set [8] (setting [25]) was found to be 25 mg/kg/day; in data set [8] (setting [26]), 25 mg/kg/day; in data set [9], 5.8 mg/kg/day; in [10], 6.3 mg/kg/day; in data set [11] (setting [27]), 0.962 mg/kg/day. The NOAEL in data set [8] (setting [25]) stood at 25 mg/kg/day; in data set [8] (setting [26]) it was 25 mg/kg/day; in data set [9], 5.8 mg/kg/day; in data set [10], 6.3 mg/kg/day; in data set [11] (setting [27]) it was 0.962 mg/kg/day.

Consider `CC(=O)c1ccc2c(c1)[C@H](NC(=O)c1ccc(F)cc1)[C@@H](O)C(C)(C)O2` [Carabersat], for which the LEL in data set [12] (setting [28]) was determined as 20 mg/kg/day; in [13], 200 mg/kg/day; in data set [14] (setting [30]), 200 mg/kg/day; in data set [15] (systemic / organ weight / adrenal gland / relative to body weight + systemic / clinical chemistry / alkaline phosphatase (alp/alk) / …) it was 200 mg/kg/day; in [16] (setting [30]) it was 20 mg/kg/day. Also, the NEL was less than 20 mg/kg/day in [12] (setting [28]); 20 mg/kg/day in [13]; 20 mg/kg/day in [14] (setting [31]); 20 mg/kg/day in data set [15] (systemic / organ weight / adrenal gland / relative to body weight + systemic / organ weight / heart / absolute); less than 20 mg/kg/day in data set [16] (setting [30]). Further, the LOAEL in [12] (setting [29]) was more than 1000 mg/kg/day; in data set [13], more than 2000 mg/kg/day; in data set [14] (setting [31]), more than 2000 mg/kg/day; in [15] (setting [32]) it was more than 1000 mg/kg/day; in [16] (setting [33]), more than 2000 mg/kg/day. In addition, the NOAEL was not below 1000 mg/kg/day in data set [12] (setting [29]); not below 2000 mg/kg/day in data set [13]; not below 2000 mg/kg/day in data set [14] (setting [31]); not below 1000 mg/kg/day in [15] (setting [32]); not below 2000 mg/kg/day in [16] (setting [33]).

For `CCN(C(=O)c1cc(C)cc(OC[C@H](C)Nc2ccncc2)c1)C(C)C.Cc1ccc(S(=O)(=O)O)cc1`, in data set [17] (setting [34]), the LOAEL is more than 20 mg/kg/day and the NOAEL was not below 20 mg/kg/day. In [17] (setting [35]), this molecule gave an LEL of 4 mg/kg/day and an NEL of less than 4 mg/kg/day. In addition, in data set [18] (setting [36]), the LOAEL was more than 40 mg/kg/day and the NOAEL was not below 40 mg/kg/day. For the same molecule, in data set [18] (setting [37]), the LEL turned out to be 12 mg/kg/day and the NEL is less than 12 mg/kg/day.

Source of the values: EPA's ToxRefDB 2.
